Measurements published in article PMC4026384, “Antibacterial Activity of THAM Trisphenylguanide against Methicillin-Resistant Staphylococcus aureus” (PLoS ONE, 2014).

Experiments:
Acanthamoeba castellanii = assay: Toxicity against eukaryotic pathogen; format: cell-based; conditions: data not shown
all of the pathogens = assay: MIC against all of the pathogens (LB); format: cell-based; conditions: complex medium (LB), actively growing bacteria
Description: Minimum inhibitory concentration (MIC) values were determined for those compounds showing the most antibacterial activity in the bacterial viability assays (see Supplemental Materials) against each of the strains of bacteria using a microdilution method in 96 well plates with LB media according to guidelines published by the British Society for Antimicrobial Chemotherapy. Minimum bactericidal concentrations (MBC) were determined by plating 10 µL and 100 µL from each well showing no signs of growth after overnight incubation of the MIC plates and determining the minimum concentration showing a 3-log reduction of viable bacteria. MIC and MBC were also determined in cation-adjusted Mueller-Hinton broth (Hardy Diagnostics, Santa Maria, CA) for some compounds and strains.

MRSA = assay: In vivo MRSA challenge (intraperitoneal infection); parameters: species or system BALB/c mice; conditions: mice, 8 h post infection
Description: Three groups of BALB/c mice (8 mice per group) were infected by intraperitoneal (i.p.) injection with 5×10^7 MRSA in 100 µl sterile PBS [16], [17]. The first treatment group was injected i.p. with 100 µl of 100 µM THAM trisphenylguanide in PBS immediately after infection. The second group was injected i.p. with 100 µl of 100 µM THAM trisphenylguanide one hour post-infection. The control group was injected with 100 µl PBS. At eight hours post-infection, all mice were euthanized. An intraperitoneal lavage using 10 ml PBS was performed to recover bacteria within the peritoneal cavity and plated at multiple dilutions on TSA plates. The heart and kidney were removed for evaluation of systemic infection. Briefly, tissues were weighed, homogenized, and plated at multiple dilutions on TSA plates. TSA plates were incubated overnight at 37°C at 5% CO2 and CFU enumerated the next day.

[1] = 100 µM i.p. one hour after MRSA infection

## [H]/N=C(\N/C(=N/[H])NCCCCCCNC(=N)NC(=N)Nc1ccc(Cl)cc1)Nc1ccc(Cl)cc1 [Chlorhexidine, chlorhexidine, reference compound]
Acanthamoeba castellanii
  IC50: ~10 µM
All of the pathogens
  MIC: ≤ 16 µg/mL

## N=C(NCCCCCCNc1nc(NCCCCCCNC(=N)Nc2ccccc2)nc(NCCCCCCNC(=N)Nc2ccccc2)n1)Nc1ccccc1 [THAM-3ΦG, Trishexylaminomelamine trisphenylguanide]
MRSA; 100 µM i.p. immediately after MRSA challenge, versus PBS
  reduction in bacterial burden in both organs (kidneys, heart) and IP lavage: approximately 3 log
MRSA; [1]
  reduction of mean CFUs in IP lavages: 2 fold
  reduction of mean CFUs in heart: 3 fold
  reduction of mean CFUs in kidneys: 20 fold
